Laboratory results as given in patent US6706491B1, “Reagents and methods for identifying and modulating expression of genes regulated by p21” (The Board of Trustees of the University of Illinois, priority 1999, dated 2004).

How the values were obtained:
p21-9 cells [1] = experiment: Mitotic index (microscopy after DAPI staining) in p21-9 cells; type: cell-based, human
Procedure: (§1) Cell growth in the presence of IPTG was assayed in three ways: measuring ^3H-thymidine incorporation (termed the “labeling index”); observing the number of mitotic cells in the culture by microscopy (termed the “mitotic index”) and determining the distribution of the culture cells in different portions of the cell cycle (termed the “cell cycle distribution”).
(§2) The mitogenic index was determined by observing cells microscopically and calculating the number of cells in mitosis after staining with 5 μg/mL 4,6-diamino-2-phenylindole (DAPI), and images were collected using a Leica DMIRB fluorescence microscope and Vaytek (Fairfield, Iowa) imaging system. Microscopically-detectable mitotic cells disappeared from these cultures in the presence of IPTG in two stages: the first occurring between 0-4 hours after IPTG addition (wherein the mitotic index dropped from about 15% in untreated cells to about 5% in IPTG-treated cells) and then again between about 10-14 hours after IPTG addition (wherein the mitotic index dropped to zero at about 13 hours after IPTG addition (FIG. 3B).

C8 cells = experiment: Apoptosis / cell survival assay in low serum; type: cell-based, mouse; conditions: IPTG added by itself
Procedure: (§3) In these experiments, conditioned media were prepared by plating 10^6 p12-9 cells per 15 cm plate in the presence of DMEM/10% FCS. The next day, IPTG was added to a final concentration of 50 μM, and this media was replaced three days later with DMEM supplemented with 0.5% FCS and 50 μM IPTG. Two days later (days 3-5 of IPTG treatment), this conditioned media was collected and stored at 4° C. up to 15 days before use. Control media were prepared by adding IPTG-free DMEM/0.5% FCS to untreated cells grown to the same density as IPTG-treated cells and collecting the media two days thereafter.
The effect of this conditioned media on apoptosis was also determined. These experiments used a mouse embryo fibroblast line C8, immortalized by E1A. […] Apoptosis was analyzed by plating 3×10^5 C8 cells per 6-cm plate, and replacing the media on the following day with fresh media supplemented with 0.4% serum or with conditioned media (no fresh serum added). DNA content analysis and DAPI staining were carried out after 24 hrs and 48 hrs, and relative cell numbers were measured by methylene blue staining (Perry et al., 1992, Mutai. Res. 276: 189-197) after 48 hrs in low-serum media.

HS 15.T cells = experiment: Mitogenic activity assay (3H-thymidine incorporation); type: cell-based, human; conditions: media supplemented with 1% or 2% FCS; 60 hr then 24 hrs label
Procedure: as §3
The slow-growing human fibrosarcoma cell line HS 15.T was used to detect mitogenic activity in these conditioned media. For mitogenic activity assays, both types of conditioned media, as well as fresh media and 1:1 mixtures of conditioned media and fresh media were used to test mitogenic activity. In these experiments, the conditioned media were supplemented with 1% or 2% FCS. Briefly, HS 15.T cells were plated in 12-well plates at 15,000 cells per well. Two days later, these cells were cultured in different types of media. […] Cells were then collected and their ^3H-thymidine incorporation determined as described by Mosca et al. (1992, Mol. Cell. Biol. 12: 4375-4383).

p21-9 cells [2] = experiment: 3H-thymidine labeling index (autoradiography) in p21-9 cells; type: cell-based, human
Procedure: as §1
^3H-thymidine incorporation assays were performed substantially as described by Dimri et al. (1995, Proc. Natl. Acad. Sci. USA 92: 9363-9367). Cells were cultured in the presence of ^3H-thymidine for 3h, and then analyzed by autoradiography. DNA replication as determined by autoradiography ceased entirely by 9 hours after addition of IPTG to the culture media (FIG. 3A).

p21-9 cells [3] = experiment: Morphology of mitotic figures after release from IPTG; type: cell-based, human; conditions: 1-2 days after release
Procedure: as §2
A major difference between cells that were inhibited by IPTG for one day compared with those inhibited for S days emerged, however, when the morphology of attached mitotic cells arising 1-2 days after release from IPTG was examined. […] The percentage of normal mitoses in 1-day and 5-day IPTG treated cells were 45% and 2%, respectively, which is close to the corresponding values for clonogenic recovery (38% and 1%).

p21 = p21 induction in p21-9 cells by IPTG (p21 ELISA); type: cell-based, human
Procedure: p21 expression from the LNp21CO3 vector in p21-9 cells was induced by culturing the cells in DMEM medium containing 10% fetal calf serum (Hyclone, Logan, Utah) and IPTG. […] Upon removing the cells from IPTG-containing media, p21 expression fell about as rapidly as it had risen, returning to pre-induction levels at about 24 hours after IPTG was removed, (FIG. 2B).
(§4) Colony assays for recovery from IPTG treatment were performed by plating about 2,000 p21-9 cells per 10 cm culture dish in DMEM/10% FCS and the presence or absence of IPTG. Cells were allowed to form colonies for 10 days before their clonogenic capacity was determined. p12-9 cells were treated with three concentrations of IPTG: 0.5 μM, 5 μM and 50 μM. […] In contrast, continuous exposure of the cells to 5 μM or 50 μM IPTG reduced the clonogenicity of p2l-9 cells by 80% and 100%, respectively.
Expression of 69 of these genes was individually tested by RT-PCR or northern hybridization with probes derived from inserts of the cDNA clones present in the microarray; these cDNAs were obtained from Genome Systems, Inc. In addition, enzyme-linked immunosorbent assay (ELISA) measurement of p21 protein was carried out using WAF1 ELISA kit (obtained from Oncogene Science, Uniondale, N.Y.) as described (Chang et al., 1999, Oncogene 18: 4808-4818). The following primary antibodies were used for immunoblotting: mouse monoclonal antibodies against Cdc2 (Santa Cruz), cyclin A (NeoMarkers), Plk 1 (Zymed) and Rb (PharMingen); rabbit polyclonal antibodies against MAD2 (BadCo), p107 (Santa Cruz), CTGF (Fisp-12; a gift of Dr. L. Lau), Prc 1 (a gift of Drs. W. Jiang and T. Hunter), and topoisomerase IIα (Ab0284; a gift of Dr. W. T. Beck), and sheep polyclonal antibody against. SOD2 (Calbiochem). Horse radish peroxidase (HRP)-conjugated secondary antibodies used were goat anti-mouse and goat anti-rabbit. IgG (Santa:Cruz) and rabbit anti-sheep IgG (KPL). Protein concentrations in all samples were equalized after measurement with BioRad-protein assay kit. Immunoblotting was carried out by standard procedures, and the signal was detected by chemiluminescence using LumiGlo (KPL).

p21-9 cells [4] = experiment: Cell cycle distribution (FACS, propidium iodide) in p21-9 cells; type: cell-based, human; conditions: after 24 hrs of 50 μM IPTG
Procedure: as §1
Cell cycle distribution was determined using FACS analysis of DNA content after staining with propidium iodide as described by Jordan et al. (1996, Cancer Res. 56: 816-825) using Becton Dickinson FACSort. By this time, 42-43% of IPTG-treated cells were arrested in G1 and G2, respectively, and about 15% of the cells were arrested with S-phase DNA content.

p21-9 cells [5] = experiment: Colony assay for recovery from IPTG treatment; type: cell-based, human; conditions: for decreased clonogenicity: 3-5 days treatment; for reduction of clonogenicity: continuous exposure
Procedure: as §4

## CC(C)S[C@@H]1O[C@H](CO)[C@H](O)[C@H](O)[C@H]1O [IPTG, isopropyl-β-thiogalactoside]
p21-9 cells [1]; 0-4 hours after addition of 50 μM IPTG, about 15% in untreated cells
  mitotic index: about 5%
p21-9 cells [1]; 50 μM IPTG
  time at which mitotic index dropped to zero after IPTG addition: about 13 hours
p21-9 cells [1]; after removal of 50 μM IPTG
  time to resumption of mitosis after IPTG release: about 30 hours
C8 cells
  effect on apoptosis in C8 cells: no effect on apoptosis
HS 15.T cells
  effect on 3H-thymidine incorporation by HS 15.T cells: no effect
p21-9 cells [2]; 50 μM IPTG
  time to complete cessation of DNA replication after addition of IPTG: ≤ 9 h
p21-9 cells [2]; after removal of 50 μM IPTG
  time to resumption of DNA replication after release from IPTG: about 20 hours
p21-9 cells [3]; 1-day IPTG treatment
  percentage of normal mitoses: 45%
p21-9 cells [3]; 5-day IPTG treatment
  percentage of normal mitoses: 2%
p21; 0.5 μM IPTG
  increase in p21 gene expression: no measurable increase over basal p21 levels
p21; 5 μM IPTG
  increase in p21 gene expression: half-maximal
p21; 50 μM IPTG
  increase in p21 gene expression: maximal increase
  time of peak p21 expression post-induction: about 24 hours
p21; IPTG-treated p21-9 cells, 50 μM IPTG
  increase in p21 levels: 15-20 fold
p21-9 cells [4]
  cells arrested in G1 and G2, respectively: 42-43%
  cells arrested with S-phase DNA content: about 15%
p21-9 cells [5]; 0.5 μM IPTG
  colony formation: did not inhibit colony formation
p21-9 cells [5]; 5 μM IPTG removed after 12 or 14 hours
  colony formation: substantially undiminished colony formation
p21-9 cells [5]; 5 μM IPTG
  decreased clonogenicity: 55-58%
  reduction of clonogenicity: 80%
p21-9 cells [5]; 50 μM IPTG removed after 12 or 14 hours
  decrease in clonogenicity: 58-63%
p21-9 cells [5]; 50 μM IPTG
  decreased clonogenicity: 95-99%
  reduction of clonogenicity: 100%
